Experimental data reported in patent US8362000B2, “Azetidinyl diamides as monoacylglycerol lipase inhibitors” (Janssen Pharmaceutica NV, priority 2009, dated 2013).
Numbering of substitutions follows the chain as printed.

Assays:
mutant MGL = target: T1, mutant MGL (Homo sapiens, UniProt Q99685, L169S/L176S); assay: MGL ThermoFluor assay - mutant; format: binding; conditions: ThermoFluor concentration-response, read-out: MGL mutant ThermoFluor Kd
T1 sequence (Q99685 1-303 L169S/L176S): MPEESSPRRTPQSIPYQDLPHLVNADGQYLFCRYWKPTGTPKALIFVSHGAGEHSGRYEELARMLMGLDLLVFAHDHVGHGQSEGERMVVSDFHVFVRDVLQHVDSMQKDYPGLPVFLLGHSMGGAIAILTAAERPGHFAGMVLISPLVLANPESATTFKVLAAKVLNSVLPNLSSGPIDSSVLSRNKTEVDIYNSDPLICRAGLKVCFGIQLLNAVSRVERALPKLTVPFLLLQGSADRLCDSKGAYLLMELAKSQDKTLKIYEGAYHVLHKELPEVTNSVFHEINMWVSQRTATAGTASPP

[1] = target: T2, purified wild type MGL (wt-MGLL 6H-11-313) (Homo sapiens, UniProt Q99685)
T2 sequence (Q99685 1-303): T1 sequence (Q99685 1-303 L169S/L176S) with S169L, S176L

MGL = target: T3, MGL (Rattus norvegicus, UniProt Q8R431); assay: 2-AG accumulation assay in rat brain homogenate; format: biochemical; conditions: rat brain homogenate, 2-AG accumulation as percent of vehicle; for 2-AG accumulation, % of vehicle control at 10 µM: compound 10 μM, read-out: Rat Brain 2AG % VehCntrl (%) @ 10 μM; for 2-AG accumulation, % of vehicle control at 1 µM: compound 1 μM, read-out: Rat Brain 2AG % VehCntrl (%) @ 1 μM
T3 construct: one g rat brain was homogenized using a Polytron homogenizer; from tissue; host or cells: rat brain homogenate
T3 sequence (Q8R431 1-303): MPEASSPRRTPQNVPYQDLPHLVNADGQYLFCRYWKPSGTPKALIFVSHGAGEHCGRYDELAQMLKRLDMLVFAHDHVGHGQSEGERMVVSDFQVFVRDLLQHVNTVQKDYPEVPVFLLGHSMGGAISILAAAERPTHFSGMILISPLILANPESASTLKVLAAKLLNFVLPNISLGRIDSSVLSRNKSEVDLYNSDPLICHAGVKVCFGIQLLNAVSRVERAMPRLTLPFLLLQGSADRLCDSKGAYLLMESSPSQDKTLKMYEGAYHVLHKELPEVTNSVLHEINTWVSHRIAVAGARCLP

O=C(c1ccc(-c2ccccc2)cc1)N1CC(N2CCN(C(=O)c3cccs3)CC2)C1 [Cpd 13, 1-[1-(Biphenyl-4-ylcarbonyl)azetidin-3-yl]-4-(thiophen-2-ylcarbonyl)piperazine] was tested, and the Kd (mutant MGL) was 3 nM, the IC50 [1] was 19.2 nM and the 2-AG accumulation, % of vehicle control at 10 µM (MGL) was 730%.

With CC1CN(C2CN(C(=O)c3ccc(Cc4ccccc4)cc3)C2)CCN1C(=O)c1nccs1 (stereo not drawn) [Cpd 115] the Kd (mutant MGL) was 37 nM, the IC50 [1] was 11.7 nM and the 2-AG accumulation, % of vehicle control at 10 µM (MGL) was 579%.

O=C(c1csc(-c2cc(Cl)cc(Cl)c2)n1)N1CC(N2CCN(C(=O)c3nccs3)CC2)C1 [Cpd 158, 1-(1-{[2-(3,5-Dichlorophenyl)-1,3-thiazol-4-yl]carbonyl}azetidin-3-yl)-4-(1,3-thiazol-2-ylcarbonyl)piperazine] gave a Kd (mutant MGL) of 476 nM, an IC50 [1] of 657 nM and a 2-AG accumulation, % of vehicle control at 1 µM (MGL) of 126%. The 2-AG accumulation, % of vehicle control at 10 µM (MGL) was 213%.

For N#Cc1cccc(-c2ccc(C(=O)N3CC(N4CCN(C(=O)c5nccs5)CC4)C3)cc2)c1 [Cpd 161, 4′-({3-[4-(1,3-Thiazol-2-ylcarbonyl)piperazin-1-yl]azetidin-1-yl}carbonyl)biphenyl-3-carbonitrile], the Kd (mutant MGL) was 11.2 nM, the IC50 [1] was 11.7 nM and the 2-AG accumulation, % of vehicle control at 1 µM (MGL) was 335%.

O=C(c1ccc(-c2ccccc2)c(F)c1)N1CC(N2CCN(C(=O)c3nccs3)CC2)C1 [Cpd 166, 1-{1-[(2-Fluorobiphenyl-4-yl)carbonyl]azetidin-3-yl}-4-(1,3-thiazol-2-ylcarbonyl)piperazine] showed a Kd (mutant MGL) of 5 nM, an IC50 [1] of under 5 nM and a 2-AG accumulation, % of vehicle control at 1 µM (MGL) of 509%.

Compound N#Cc1ccc(-c2ccc(C(=O)N3CC(N4CCN(C(=O)c5nccs5)CC4)C3)cc2)cc1 [Cpd 167, 4′-({3-[4-(1,3-Thiazol-2-ylcarbonyl)piperazin-1-yl]azetidin-1-yl}carbonyl)biphenyl-4-carbonitrile] has a Kd (mutant MGL) of 55.8 nM, an IC50 [1] of 15.2 nM and a 2-AG accumulation, % of vehicle control at 1 µM (MGL) of 481%.

For O=C(c1ccccc1)N1CCN(C2CN(C(=O)c3ccc(-c4ccccc4OC(F)(F)F)cc3)C2)CC1 [Cpd 196, 1-(Phenylcarbonyl)-4-(1-{[2′-(trifluoromethoxy)biphenyl-4-yl]carbonyl}azetidin-3-yl)piperazine], the IC50 [1] was 216 nM and the 2-AG accumulation, % of vehicle control at 10 µM (MGL) was 516%.

Compound CS(=O)(=O)c1cccc(-c2ccc(C(=O)N3CC(N4CCN(C(=O)c5nccs5)CC4)C3)cc2)c1 [Cpd 208, 1-(1-{[3′-(Methylsulfonyl)biphenyl-4-yl]carbonyl}azetidin-3-yl)-4-(1,3-thiazol-2-ylcarbonyl)piperazine] has an IC50 [1] of 92 nM, a 2-AG accumulation, % of vehicle control at 1 µM (MGL) of 480% and a 2-AG accumulation, % of vehicle control at 10 µM (MGL) of 324%.

Compound O=C(c1ccc(-c2ccc(Cl)c(C(F)(F)F)c2)cc1)N1CC(N2CCN(C(=O)c3nccs3)CC2)C1 [Cpd 212, 1-(1-{[4′-Chloro-3′-(trifluoromethyl)biphenyl-4-yl]carbonyl}azetidin-3-yl)-4-(1,3-thiazol-2-ylcarbonyl)piperazine] has an IC50 [1] of under 5 nM and a 2-AG accumulation, % of vehicle control at 10 µM (MGL) of 831%.

CS(=O)(=O)Nc1cccc(-c2ccc(C(=O)N3CC(N4CCN(C(=O)c5nccs5)CC4)C3)cc2)c1 [Cpd 219, N-[4′-({3-[4-(1,3-Thiazol-2-ylcarbonyl)piperazin-1-yl]azetidin-1-yl}carbonyl)biphenyl-3-yl]methanesulfonamide] was tested, and the IC50 [1] was 32 nM and the 2-AG accumulation, % of vehicle control at 10 µM (MGL) was 851%.

Compound O=C(c1ccc(-c2ccc(F)c(Cl)c2)cc1)N1CC(N2CCN(C(=O)c3cscn3)CC2)C1 [Cpd 227, 1-{1-[(3′-Chloro-4′-fluorobiphenyl-4-yl)carbonyl]azetidin-3-yl}-4-(1,3-thiazol-4-ylcarbonyl)piperazine] has an IC50 [1] of 7 nM and a 2-AG accumulation, % of vehicle control at 10 µM (MGL) of 938%.

In the case of O=C(c1ccc(-c2ccc(Cl)c(Cl)c2)cc1)N1CC(N2CCN(C(=O)c3cscn3)CC2)C1 [Cpd 228, 1-{1-[(3′,4′-Dichlorobiphenyl-4-yl)carbonyl]azetidin-3-yl}-4-(1,3-thiazol-4-ylcarbonyl)piperazine], the IC50 [1] is reported as under 5 nM and the 2-AG accumulation, % of vehicle control at 10 µM (MGL) is reported as 710%.

With O=C(c1ccc2c(c1)CCCN2C(=O)C1CCC1)N1CC(N2CCN(C(=O)c3nccs3)CC2)C1 [Cpd 364] the IC50 [1] was 210 nM and the 2-AG accumulation, % of vehicle control at 1 µM (MGL) was 581%.

O=C(c1ccccc1)N1CCN(C2CN(C(=O)c3ccc(OCc4cccc(Cl)c4Cl)cc3)C2)CC1 [Cpd 381, 1-[1-({4-[(2,3-Dichlorobenzyl)oxy]phenyl}carbonyl)azetidin-3-yl]-4-(phenylcarbonyl)piperazine] was tested, and the IC50 [1] was under 5 nM and the 2-AG accumulation, % of vehicle control at 10 µM (MGL) was 520%.

Compound O=C(c1ccccc1)N1CCN(C2CN(C(=O)c3ccc(Oc4cc(C(F)(F)F)ccn4)cc3)C2)CC1 [Cpd 518] has an IC50 [1] of 1610 nM and a 2-AG accumulation, % of vehicle control at 1 µM (MGL) of 86%.

O=C(c1cccc(C(F)(F)F)c1)N1CCc2cc(C(=O)N3CC(N4CCN(C(=O)c5nccs5)CC4)C3)ccc2C1 [Cpd 679, 6-({3-[4-(1,3-Thiazol-2-ylcarbonyl)piperazin-1-yl]azetidin-1-yl}carbonyl)-2-{[3-(trifluoromethyl)phenyl]carbonyl}-1,2,3,4-tetrahydroisoquinoline] gave an IC50 [1] of 24 nM and a 2-AG accumulation, % of vehicle control at 1 µM (MGL) of 751%.

O=C(c1ccc(Oc2cccc(C(F)(F)F)c2)nc1)N1CC(N2CCN(C(=O)c3cscn3)CC2)C1 [Cpd 689] showed an IC50 [1] of 45 nM and a 2-AG accumulation, % of vehicle control at 1 µM (MGL) of 136%.

In the case of O=C(c1ccc(S(=O)(=O)c2cccc(Cl)c2)cc1)N1CC(N2CCN(C(=O)c3nccs3)CC2)C1 [Cpd 876], the IC50 [1] is reported as under 5 nM and the 2-AG accumulation, % of vehicle control at 1 µM (MGL) is reported as 363%.

For O=C(c1ccc2c(c1)CCN(Cc1ccc(C(F)(F)F)cc1)C2)N1CC(N2CCN(C(=O)c3nccs3)CC2)C1 [Cpd 880], the IC50 [1] was under 5 nM and the 2-AG accumulation, % of vehicle control at 1 µM (MGL) was 945%.

In the case of O=C(c1ccc2c(c1)Sc1ccccc1O2)N1CC(N2CCN(C(=O)c3nccs3)CC2)C1 [Cpd 886], the IC50 [1] is reported as under 5 nM and the 2-AG accumulation, % of vehicle control at 1 µM (MGL) is reported as 823%.

Work on O=C(c1ccc(N2CCCCCC2)cc1)N1CC(N2CCN(C(=O)c3nccs3)CC2)C1 [Cpd 888] yielded an IC50 [1] of under 5 nM and a 2-AG accumulation, % of vehicle control at 1 µM (MGL) of 940%.

Compound O=C(c1ccc(Cc2cccc(C(F)(F)F)c2)cc1)N1CC(N2CCN(C(=O)c3cscn3)CC2)C1 [Cpd 998] has an IC50 [1] of under 5 nM and a 2-AG accumulation, % of vehicle control at 1 µM (MGL) of 639%.

With O=C(c1ccc(Cc2ccc(C(F)(F)F)cc2)cc1)N1CC(N2CCN(C(=O)c3cscn3)CC2)C1 [Cpd 999] the IC50 [1] was 8 nM and the 2-AG accumulation, % of vehicle control at 1 µM (MGL) was 458%.

O=C(c1ccc2c(ccn2-c2ccc(F)cc2F)c1)N1CC(N2CCN(C(=O)c3ccc[nH]3)CC2)C1 [Cpd 1061, 1-(2,4-Difluorophenyl)-5-({3-[4-(1H-pyrrol-2-ylcarbonyl)piperazin-1-yl]azetidin-1-yl}carbonyl)-1H-indole] gave an IC50 [1] of 6 nM and a 2-AG accumulation, % of vehicle control at 1 µM (MGL) of 618%.

O=C(c1ccc2c(-c3ccc(C(F)(F)F)cc3)ncnc2c1)N1CC(N2CCN(C(=O)c3nccs3)CC2)C1 [Cpd 1086] showed an IC50 [1] of 9 nM and a 2-AG accumulation, % of vehicle control at 1 µM (MGL) of 488%.

Cc1c(C(=O)N2CC(N3CCN(C(=O)c4nccs4)CC3)C2)nn(-c2ccc(Cl)cc2Cl)c1-c1ccc(Cl)cc1 [Cpd 1103] gave an IC50 [1] of 13 nM and a 2-AG accumulation, % of vehicle control at 1 µM (MGL) of 698%.

Work on O=C(c1ccc2c(-c3ccccc3)ncnc2c1)N1CC(N2CCN(C(=O)c3nccs3)CC2)C1 [Cpd 1130] yielded an IC50 [1] of 22 nM and a 2-AG accumulation, % of vehicle control at 1 µM (MGL) of 553%.

With O=C(c1ccc(-c2ccc(C(F)(F)F)s2)cc1)N1CCN(C2CN(C(=O)c3cscn3)C2)CC1 [Cpd 1136] the IC50 [1] was 25 nM and the 2-AG accumulation, % of vehicle control at 1 µM (MGL) was 325%.

Cn1cc(-c2ccc(C(F)(F)F)cc2)c2ccc(C(=O)N3CC(N4CCN(C(=O)c5cscn5)CC4)C3)cc21 [Cpd 1148] showed an IC50 [1] of 33 nM and a 2-AG accumulation, % of vehicle control at 1 µM (MGL) of 344%.

With Cn1cc(-c2ccccc2)c2ccc(C(=O)N3CC(N4CCN(C(=O)c5cscn5)CC4)C3)cc21 [Cpd 1155] the IC50 [1] was 41 nM and the 2-AG accumulation, % of vehicle control at 1 µM (MGL) was 617%.

With O=C(c1cc(-c2ccccc2)n(-c2ccccc2)n1)N1CC(N2CCN(C(=O)c3nccs3)CC2)C1 [Cpd 1164] the IC50 [1] was 48 nM and the 2-AG accumulation, % of vehicle control at 1 µM (MGL) was 250%.

In the case of Cn1cc(-c2ccc(C(F)(F)F)cc2)c2ccc(C(=O)N3CC(N4CCN(C(=O)c5nccs5)CC4)C3)cc21 [Cpd 1347], the IC50 [1] is reported as under 5 nM and the 2-AG accumulation, % of vehicle control at 1 µM (MGL) is reported as 741%.
